# Test results from patent publication US7118895B2, “Process for producing aglycon by using diglycosidase and flavor-improved food containing the aglycon and converting agent to be used in the process” (Amano Enzyme Inc., priority 2000, dated 2006).
# Columns and labels:
# [1] = system: β-Glucosidase derived from almond; experiment: Reactivity toward various isoflavone glycosides (HPLC); type: biochemical; parameters: unit not given here; conditions: 55 °C, pH 4.0
# Procedure, shortened: (§1)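 Enzymes at 0.75 AU/mL in pH 4.0 acetate buffer were reacted at 55° C with individual isoflavone glycosides (substrate stock 2 mM in methanol) in 20 mM acetate pH 4.0. Aglycone release followed at 0, 1, 3 and 6 h: ethanol-quenched, ODS HPLC with UV 260 nm, quantified against calibration curves.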
# [2] = system: β-Xylosidase derived from pectinase G; experiment: as above; type: biochemical; parameters: unit not given here; conditions: 55 °C, pH 4.0
# Procedure, shortened: as §1
# Crude diglycosidase = experiment: Examination of substrate concentration in the conversion into isoflavone aglycons by diglycosidase using soybean materials; type: biochemical, Penicillium multicolor IAM7153;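 as to Decomposition efficiency: ratio of each glycoside/aglycon within its isoflavone family: percent of the isoflavone family total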
# Procedure, shortened: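 Soybean materials (roasted soy flour, soymilk, defatted soybean, concentrated soy protein) at 2–30% (w/v) in 20 mM acetate pH 4.0 were reacted with crude diglycosidase at 55° C with shaking; enzyme solution added was 1.88 AU/mL. Samples taken at 0, 1, 3 and 6 h were ethanol-extracted and analyzed by HPLC.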
compound,measurement,setting,value
O=c1c(-c2ccc(O)cc2)coc2cc(O[C@@H]3O[C@H](CO)[C@@H](O)[C@H](O)[C@H]3O)ccc12 [daidzin],aglycon,[1]; Reaction time 0 h,0.9
same,glucoside,[1]; Reaction time 0 h,99.1
same,aglycon,[1]; Reaction time 1 h,9.1
same,glucoside,[1]; Reaction time 1 h,90.9
same,aglycon,[1]; Reaction time 3 h,10.8
same,glucoside,[1]; Reaction time 3 h,89.2
same,aglycon,[1]; Reaction time 6 h,11.3
same,glucoside,[1]; Reaction time 6 h,88.7
same,aglycon,[2]; Reaction time 0 h,0.9
same,glucoside,[2]; Reaction time 0 h,99.1
same,aglycon,[2]; Reaction time 1 h,9.1
same,glucoside,[2]; Reaction time 1 h,90.9
same,aglycon,[2]; Reaction time 3 h,24
same,glucoside,[2]; Reaction time 3 h,76
same,aglycon,[2]; Reaction time 6 h,42.1
same,glucoside,[2]; Reaction time 6 h,57.9
same,Decomposition efficiency: ratio of each glycoside/aglycon within its isoflavone family,"Crude diglycosidase; roasted soy flour, substrate concentration 2%, heat treatment of enzyme no, reaction time 0 h",30.2%
same,Decomposition efficiency: ratio of each glycoside/aglycon within its isoflavone family,"Crude diglycosidase; roasted soy flour, substrate concentration 2%, heat treatment of enzyme no, reaction time 1 h",not detected
same,Decomposition efficiency: ratio of each glycoside/aglycon within its isoflavone family,"Crude diglycosidase; roasted soy flour, substrate concentration 2%, heat treatment of enzyme no, reaction time 3 h",not detected
same,Decomposition efficiency: ratio of each glycoside/aglycon within its isoflavone family,"Crude diglycosidase; roasted soy flour, substrate concentration 2%, heat treatment of enzyme no, reaction time 6 h",not detected
same,Decomposition efficiency: ratio of each glycoside/aglycon within its isoflavone family,"Crude diglycosidase; roasted soy flour, substrate concentration 2%, heat treatment of enzyme yes, reaction time 6 h",46.6%
same,Decomposition efficiency: ratio of each glycoside/aglycon within its isoflavone family,"Crude diglycosidase; roasted soy flour, substrate concentration 5%, heat treatment of enzyme no, reaction time 0 h",46.1%
same,Decomposition efficiency: ratio of each glycoside/aglycon within its isoflavone family,"Crude diglycosidase; roasted soy flour, substrate concentration 5%, heat treatment of enzyme no, reaction time 1 h",not detected
same,Decomposition efficiency: ratio of each glycoside/aglycon within its isoflavone family,"Crude diglycosidase; roasted soy flour, substrate concentration 5%, heat treatment of enzyme no, reaction time 3 h",not detected
same,Decomposition efficiency: ratio of each glycoside/aglycon within its isoflavone family,"Crude diglycosidase; roasted soy flour, substrate concentration 5%, heat treatment of enzyme no, reaction time 6 h",not detected
same,Decomposition efficiency: ratio of each glycoside/aglycon within its isoflavone family,"Crude diglycosidase; roasted soy flour, substrate concentration 5%, heat treatment of enzyme yes, reaction time 6 h",46.1%
same,Decomposition efficiency: ratio of each glycoside/aglycon within its isoflavone family,"Crude diglycosidase; roasted soy flour, substrate concentration 10%, heat treatment of enzyme no, reaction time 0 h",60.1%
same,Decomposition efficiency: ratio of each glycoside/aglycon within its isoflavone family,"Crude diglycosidase; roasted soy flour, substrate concentration 10%, heat treatment of enzyme no, reaction time 1 h",not detected
same,Decomposition efficiency: ratio of each glycoside/aglycon within its isoflavone family,"Crude diglycosidase; roasted soy flour, substrate concentration 10%, heat treatment of enzyme no, reaction time 3 h",not detected
same,Decomposition efficiency: ratio of each glycoside/aglycon within its isoflavone family,"Crude diglycosidase; roasted soy flour, substrate concentration 10%, heat treatment of enzyme no, reaction time 6 h",not detected
same,Decomposition efficiency: ratio of each glycoside/aglycon within its isoflavone family,"Crude diglycosidase; roasted soy flour, substrate concentration 10%, heat treatment of enzyme yes, reaction time 6 h",47.5%
same,Decomposition efficiency: ratio of each glycoside/aglycon within its isoflavone family,"Crude diglycosidase; roasted soy flour, substrate concentration 20%, heat treatment of enzyme no, reaction time 0 h",50.3%
same,Decomposition efficiency: ratio of each glycoside/aglycon within its isoflavone family,"Crude diglycosidase; roasted soy flour, substrate concentration 20%, heat treatment of enzyme no, reaction time 1 h",not detected
same,Decomposition efficiency: ratio of each glycoside/aglycon within its isoflavone family,"Crude diglycosidase; roasted soy flour, substrate concentration 20%, heat treatment of enzyme no, reaction time 3 h",not detected
same,Decomposition efficiency: ratio of each glycoside/aglycon within its isoflavone family,"Crude diglycosidase; roasted soy flour, substrate concentration 20%, heat treatment of enzyme no, reaction time 6 h",not detected
same,Decomposition efficiency: ratio of each glycoside/aglycon within its isoflavone family,"Crude diglycosidase; roasted soy flour, substrate concentration 20%, heat treatment of enzyme yes, reaction time 6 h",48.6%
same,Decomposition efficiency: ratio of each glycoside/aglycon within its isoflavone family,"Crude diglycosidase; roasted soy flour, substrate concentration 30%, heat treatment of enzyme no, reaction time 0 h",47.7%
same,Decomposition efficiency: ratio of each glycoside/aglycon within its isoflavone family,"Crude diglycosidase; roasted soy flour, substrate concentration 30%, heat treatment of enzyme no, reaction time 1 h",not detected
same,Decomposition efficiency: ratio of each glycoside/aglycon within its isoflavone family,"Crude diglycosidase; roasted soy flour, substrate concentration 30%, heat treatment of enzyme no, reaction time 3 h",not detected
same,Decomposition efficiency: ratio of each glycoside/aglycon within its isoflavone family,"Crude diglycosidase; roasted soy flour, substrate concentration 30%, heat treatment of enzyme no, reaction time 6 h",not detected
same,Decomposition efficiency: ratio of each glycoside/aglycon within its isoflavone family,"Crude diglycosidase; roasted soy flour, substrate concentration 30%, heat treatment of enzyme yes, reaction time 6 h",49.0%
same,Decomposition efficiency: ratio of each glycoside/aglycon within its isoflavone family,"Crude diglycosidase; soymilk, substrate concentration 2%, heat treatment of enzyme no, reaction time 0 h",53.5%
same,Decomposition efficiency: ratio of each glycoside/aglycon within its isoflavone family,"Crude diglycosidase; soymilk, substrate concentration 2%, heat treatment of enzyme no, reaction time 1 h",not detected
same,Decomposition efficiency: ratio of each glycoside/aglycon within its isoflavone family,"Crude diglycosidase; soymilk, substrate concentration 2%, heat treatment of enzyme no, reaction time 3 h",not detected
same,Decomposition efficiency: ratio of each glycoside/aglycon within its isoflavone family,"Crude diglycosidase; soymilk, substrate concentration 2%, heat treatment of enzyme no, reaction time 6 h",not detected
same,Decomposition efficiency: ratio of each glycoside/aglycon within its isoflavone family,"Crude diglycosidase; soymilk, substrate concentration 2%, heat treatment of enzyme yes, reaction time 6 h",39.8%
same,Decomposition efficiency: ratio of each glycoside/aglycon within its isoflavone family,"Crude diglycosidase; soymilk, substrate concentration 5%, heat treatment of enzyme no, reaction time 0 h",34.2%
same,Decomposition efficiency: ratio of each glycoside/aglycon within its isoflavone family,"Crude diglycosidase; soymilk, substrate concentration 5%, heat treatment of enzyme no, reaction time 1 h",not detected
same,Decomposition efficiency: ratio of each glycoside/aglycon within its isoflavone family,"Crude diglycosidase; soymilk, substrate concentration 5%, heat treatment of enzyme no, reaction time 3 h",not detected
same,Decomposition efficiency: ratio of each glycoside/aglycon within its isoflavone family,"Crude diglycosidase; soymilk, substrate concentration 5%, heat treatment of enzyme no, reaction time 6 h",not detected
same,Decomposition efficiency: ratio of each glycoside/aglycon within its isoflavone family,"Crude diglycosidase; soymilk, substrate concentration 5%, heat treatment of enzyme yes, reaction time 6 h",40.5%
same,Decomposition efficiency: ratio of each glycoside/aglycon within its isoflavone family,"Crude diglycosidase; soymilk, substrate concentration 10%, heat treatment of enzyme no, reaction time 0 h",34.6%
same,Decomposition efficiency: ratio of each glycoside/aglycon within its isoflavone family,"Crude diglycosidase; soymilk, substrate concentration 10%, heat treatment of enzyme no, reaction time 1 h",not detected
same,Decomposition efficiency: ratio of each glycoside/aglycon within its isoflavone family,"Crude diglycosidase; soymilk, substrate concentration 10%, heat treatment of enzyme no, reaction time 3 h",not detected
same,Decomposition efficiency: ratio of each glycoside/aglycon within its isoflavone family,"Crude diglycosidase; soymilk, substrate concentration 10%, heat treatment of enzyme no, reaction time 6 h",not detected
same,Decomposition efficiency: ratio of each glycoside/aglycon within its isoflavone family,"Crude diglycosidase; soymilk, substrate concentration 10%, heat treatment of enzyme yes, reaction time 6 h",39.4%
same,Decomposition efficiency: ratio of each glycoside/aglycon within its isoflavone family,"Crude diglycosidase; soymilk, substrate concentration 20%, heat treatment of enzyme no, reaction time 0 h",34.1%
same,Decomposition efficiency: ratio of each glycoside/aglycon within its isoflavone family,"Crude diglycosidase; soymilk, substrate concentration 20%, heat treatment of enzyme no, reaction time 1 h",not detected
same,Decomposition efficiency: ratio of each glycoside/aglycon within its isoflavone family,"Crude diglycosidase; soymilk, substrate concentration 20%, heat treatment of enzyme no, reaction time 3 h",not detected
same,Decomposition efficiency: ratio of each glycoside/aglycon within its isoflavone family,"Crude diglycosidase; soymilk, substrate concentration 20%, heat treatment of enzyme no, reaction time 6 h",not detected
same,Decomposition efficiency: ratio of each glycoside/aglycon within its isoflavone family,"Crude diglycosidase; soymilk, substrate concentration 20%, heat treatment of enzyme yes, reaction time 6 h",39.8%
same,Decomposition efficiency: ratio of each glycoside/aglycon within its isoflavone family,"Crude diglycosidase; soymilk, substrate concentration 30%, heat treatment of enzyme no, reaction time 0 h",34.9%
same,Decomposition efficiency: ratio of each glycoside/aglycon within its isoflavone family,"Crude diglycosidase; soymilk, substrate concentration 30%, heat treatment of enzyme no, reaction time 1 h",not detected
same,Decomposition efficiency: ratio of each glycoside/aglycon within its isoflavone family,"Crude diglycosidase; soymilk, substrate concentration 30%, heat treatment of enzyme no, reaction time 3 h",not detected
same,Decomposition efficiency: ratio of each glycoside/aglycon within its isoflavone family,"Crude diglycosidase; soymilk, substrate concentration 30%, heat treatment of enzyme no, reaction time 6 h",not detected
same,Decomposition efficiency: ratio of each glycoside/aglycon within its isoflavone family,"Crude diglycosidase; soymilk, substrate concentration 30%, heat treatment of enzyme yes, reaction time 6 h",40.0%
same,Decomposition efficiency of daidzin family in defatted soybean,"Crude diglycosidase; substrate concentration 2%, heat treatment of enzyme no, reaction time 0 h",42.3
same,Decomposition efficiency of daidzin family in defatted soybean,"Crude diglycosidase; substrate concentration 2%, heat treatment of enzyme no, reaction time 1 h",not detected
same,Decomposition efficiency of daidzin family in defatted soybean,"Crude diglycosidase; substrate concentration 2%, heat treatment of enzyme no, reaction time 3 h",not detected
same,Decomposition efficiency of daidzin family in defatted soybean,"Crude diglycosidase; substrate concentration 2%, heat treatment of enzyme no, reaction time 6 h",not detected
same,Decomposition efficiency of daidzin family in defatted soybean,"Crude diglycosidase; substrate concentration 2%, heat treatment of enzyme yes, reaction time 6 h",43.7
same,Decomposition efficiency of daidzin family in defatted soybean,"Crude diglycosidase; substrate concentration 5%, heat treatment of enzyme no, reaction time 0 h",44.0
same,Decomposition efficiency of daidzin family in defatted soybean,"Crude diglycosidase; substrate concentration 5%, heat treatment of enzyme no, reaction time 1 h",not detected
same,Decomposition efficiency of daidzin family in defatted soybean,"Crude diglycosidase; substrate concentration 5%, heat treatment of enzyme no, reaction time 3 h",not detected
same,Decomposition efficiency of daidzin family in defatted soybean,"Crude diglycosidase; substrate concentration 5%, heat treatment of enzyme no, reaction time 6 h",not detected
same,Decomposition efficiency of daidzin family in defatted soybean,"Crude diglycosidase; substrate concentration 5%, heat treatment of enzyme yes, reaction time 6 h",45.8
same,Decomposition efficiency of daidzin family in defatted soybean,"Crude diglycosidase; substrate concentration 10%, heat treatment of enzyme no, reaction time 0 h",45.6
same,Decomposition efficiency of daidzin family in defatted soybean,"Crude diglycosidase; substrate concentration 10%, heat treatment of enzyme no, reaction time 1 h",not detected
same,Decomposition efficiency of daidzin family in defatted soybean,"Crude diglycosidase; substrate concentration 10%, heat treatment of enzyme no, reaction time 3 h",not detected
same,Decomposition efficiency of daidzin family in defatted soybean,"Crude diglycosidase; substrate concentration 10%, heat treatment of enzyme no, reaction time 6 h",not detected
same,Decomposition efficiency of daidzin family in defatted soybean,"Crude diglycosidase; substrate concentration 10%, heat treatment of enzyme yes, reaction time 6 h",47.5
